Source: patent US20140377241A1, “BIOPREPARATION BALIS FOR THE PROPHYLAXIS AND TREATMENT OF INFECTIOUS DISEASES” (priority 2010, published 2014)
Where two headings read alike, the source gives them in different places.

Tests used:
B. subtilis VKPM B-8611 = assay: Sensitivity to antibiotics of the Bacillus type strains (inhibited growth area); type: cell-based
[1] = test system: B. licheniformis VKPM B-8610; assay: as above; type: cell-based, Bacillus licheniformis

With `NCC[C@H](O)C(=O)N[C@@H]1C[C@H](N)[C@@H](O[C@H]2O[C@H](CN)[C@@H](O)[C@H](O)[C@H]2O)[C@H](O)[C@H]1O[C@H]1O[C@H](CO)[C@@H](O)[C@H](N)[C@H]1O` [Amikacin] the “Diameter of the culture's inhibited growth area” value (B. subtilis VKPM B-8611) was 22 ± 0.3 mm and the “Diameter of the culture's inhibited growth area” value ([1]; B. licheniformis VKPM B-8610) was 17 ± 0.2 mm.

For `CC1(C)S[C@@H]2[C@H](NC(=O)[C@H](N)c3ccc(O)cc3)C(=O)N2[C@H]1C(=O)O` [Amoxicillin], the “Diameter of the culture's inhibited growth area” value (B. subtilis VKPM B-8611) was 19 ± 0.2 mm and the “Diameter of the culture's inhibited growth area” value ([1]; B. licheniformis VKPM B-8610) was 16 ± 0.1 mm.

In the case of `CC1(C)S[C@@H]2[C@H](NC(=O)[C@H](N)c3ccccc3)C(=O)N2[C@H]1C(=O)O` [Ampicillin], the “Diameter of the culture's inhibited growth area” value (B. subtilis VKPM B-8611) is reported as 11 ± 0.2 mm and the “Diameter of the culture's inhibited growth area” value ([1]; B. licheniformis VKPM B-8610) is reported as “∘”.

With `CC1(C)S[C@@H]2[C@H](NC(=O)[C@H](NC(=O)N3CCNC3=O)c3ccccc3)C(=O)N2[C@H]1C(=O)O` [Azlocillin] the “Diameter of the culture's inhibited growth area” value (B. subtilis VKPM B-8611) was 19 ± 0.1 mm and the “Diameter of the culture's inhibited growth area” value ([1]; B. licheniformis VKPM B-8610) was 16 ± 0.1 mm.

For `CC1(C)S[C@@H]2[C@H](NC(=O)Cc3ccccc3)C(=O)N2[C@H]1C(=O)O` [Benzylpenicillin], the “Diameter of the culture's inhibited growth area” value (B. subtilis VKPM B-8611) was 7 ± 0.1 mm and the “Diameter of the culture's inhibited growth area” value ([1]; B. licheniformis VKPM B-8610) was 3 ± 0.2 mm.

For `CC1(C)S[C@@H]2[C@H](NC(=O)C(C(=O)O)c3ccccc3)C(=O)N2[C@H]1C(=O)O` (stereo partly shown) [Carbenicillin], the “Diameter of the culture's inhibited growth area” value (B. subtilis VKPM B-8611) was 23 ± 0.5 mm and the “Diameter of the culture's inhibited growth area” value ([1]; B. licheniformis VKPM B-8610) was 20 ± 0.1 mm.

For `Cn1nnnc1SCC1=C(C(=O)O)N2C(=O)[C@@H](NC(=O)[C@H](O)c3ccccc3)[C@H]2SC1` [Cefamandole], the “Diameter of the culture's inhibited growth area” value (B. subtilis VKPM B-8611) was 35 ± 0.3 mm and the “Diameter of the culture's inhibited growth area” value ([1]; B. licheniformis VKPM B-8610) was 15 ± 0.1 mm.

For `Cc1nnc(SCC2=C(C(=O)O)N3C(=O)[C@@H](NC(=O)Cn4cnnn4)[C@H]3SC2)s1` [Cefazolin], the “Diameter of the culture's inhibited growth area” value (B. subtilis VKPM B-8611) was 25 ± 0.2 mm and the “Diameter of the culture's inhibited growth area” value ([1]; B. licheniformis VKPM B-8610) was 19 ± 0.2 mm.

`CCN1CCN(C(=O)N[C@@H](C(=O)N[C@@H]2C(=O)N3C(C(=O)O)=C(CSc4nnnn4C)CS[C@H]23)c2ccc(O)cc2)C(=O)C1=O` [Cefoperazone] was tested, and the “Diameter of the culture's inhibited growth area” value (B. subtilis VKPM B-8611) was 15 ± 0.2 mm and the “Diameter of the culture's inhibited growth area” value ([1]; B. licheniformis VKPM B-8610) was 13 ± 0.1 mm.

In the case of `CO/N=C(\C(=O)N[C@@H]1C(=O)N2C(C(=O)O)=C(COC(C)=O)CS[C@H]12)c1csc(N)n1` [Cefotaxime], the “Diameter of the culture's inhibited growth area” value (B. subtilis VKPM B-8611) is reported as 15 ± 0.1 mm and the “Diameter of the culture's inhibited growth area” value ([1]; B. licheniformis VKPM B-8610) is reported as 9 ± 0.1 mm.

For `CO[C@@]1(NC(=O)Cc2cccs2)C(=O)N2C(C(=O)O)=C(COC(N)=O)CS[C@@H]21` [Cefoxitin], the “Diameter of the culture's inhibited growth area” value (B. subtilis VKPM B-8611) was 18 ± 0.1 mm and the “Diameter of the culture's inhibited growth area” value ([1]; B. licheniformis VKPM B-8610) was 13 ± 0.1 mm.

With `CC(C)(O/N=C(\C(=O)N[C@@H]1C(=O)N2C(C(=O)[O-])=C(C[n+]3ccccc3)CS[C@H]12)c1csc(N)n1)C(=O)O` [Ceftazidime] the “Diameter of the culture's inhibited growth area” value (B. subtilis VKPM B-8611) was 6 ± 0.3 mm and the “Diameter of the culture's inhibited growth area” value ([1]; B. licheniformis VKPM B-8610) was 13 ± 0.2 mm.

For `CO/N=C(\C(=O)N[C@@H]1C(=O)N2C(C(=O)O)=CCS[C@H]12)c1csc(N)n1` [Ceftizoxime], the “Diameter of the culture's inhibited growth area” value (B. subtilis VKPM B-8611) was 3 ± 0.1 mm and the “Diameter of the culture's inhibited growth area” value ([1]; B. licheniformis VKPM B-8610) was 11 ± 0.1 mm.

For `CO/N=C(\C(=O)N[C@@H]1C(=O)N2C(C(=O)O)=C(CSc3nc(=O)c(=O)[nH]n3C)CS[C@H]12)c1csc(N)n1` [Ceftriaxone], the “Diameter of the culture's inhibited growth area” value (B. subtilis VKPM B-8611) was 20 ± 0.4 mm and the “Diameter of the culture's inhibited growth area” value ([1]; B. licheniformis VKPM B-8610) was 12 ± 0.2 mm.

In the case of `CO/N=C(\C(=O)N[C@@H]1C(=O)N2C(C(=O)O)=C(COC(N)=O)CS[C@H]12)c1ccco1` [Cefuroxime], the “Diameter of the culture's inhibited growth area” value (B. subtilis VKPM B-8611) is reported as 2 ± 0.1 mm and the “Diameter of the culture's inhibited growth area” value ([1]; B. licheniformis VKPM B-8610) is reported as 3 ± 0.1 mm.

`CC(=O)OCC1=C(C(=O)O)N2C(=O)[C@@H](NC(=O)Cc3cccs3)[C@H]2SC1` [Cephalothin] was tested, and the “Diameter of the culture's inhibited growth area” value (B. subtilis VKPM B-8611) was 35 ± 0.1 mm and the “Diameter of the culture's inhibited growth area” value ([1]; B. licheniformis VKPM B-8610) was 21 ± 0.3 mm.

For `O=C(N[C@H](CO)[C@H](O)c1ccc([N+](=O)[O-])cc1)C(Cl)Cl` [Chloramphenicol], the “Diameter of the culture's inhibited growth area” value (B. subtilis VKPM B-8611) was 18 ± 0.3 mm and the “Diameter of the culture's inhibited growth area” value ([1]; B. licheniformis VKPM B-8610) was 10 ± 0.1 mm.

`CCC[C@@H]1C[C@@H](C(=O)N[C@@H]([C@H]2O[C@H](SC)[C@H](O)[C@@H](O)[C@H]2O)[C@H](C)Cl)N(C)C1` [Clindamycin] was tested, and the “Diameter of the culture's inhibited growth area” value (B. subtilis VKPM B-8611) was 9 ± 0.2 mm and the “Diameter of the culture's inhibited growth area” value ([1]; B. licheniformis VKPM B-8610) was 12 ± 0.1 mm.

With `C[C@@H](O)[C@H]1C(=O)N2C(C(=O)O)=C(SCCN=CN)C[C@H]12` [Imipenem] the “Diameter of the culture's inhibited growth area” value (B. subtilis VKPM B-8611) was 38 ± 0.2 mm and the “Diameter of the culture's inhibited growth area” value ([1]; B. licheniformis VKPM B-8610) was 30 ± 0.1 mm.

With `NC[C@H]1O[C@H](O[C@H]2[C@H](O)[C@@H](O[C@H]3O[C@H](CO)[C@@H](O)[C@H](N)[C@H]3O)[C@H](N)C[C@@H]2N)[C@H](O)[C@@H](O)[C@@H]1O` [Kanamycin] the “Diameter of the culture's inhibited growth area” value (B. subtilis VKPM B-8611) was 22 ± 0.2 mm and the “Diameter of the culture's inhibited growth area” value ([1]; B. licheniformis VKPM B-8610) was 21 ± 0.1 mm.

For `COc1cccc(OC)c1C(=O)N[C@@H]1C(=O)N2[C@@H]1SC(C)(C)[C@@H]2C(=O)O` [Methicillin], the “Diameter of the culture's inhibited growth area” value (B. subtilis VKPM B-8611) was 20 ± 0.1 mm and the “Diameter of the culture's inhibited growth area” value ([1]; B. licheniformis VKPM B-8610) was 10 ± 0.1 mm.

With `CC1(C)S[C@@H]2[C@H](NC(=O)[C@H](NC(=O)N3CCN(S(C)(=O)=O)C3=O)c3ccccc3)C(=O)N2[C@H]1C(=O)O` [Mezlocillin] the “Diameter of the culture's inhibited growth area” value (B. subtilis VKPM B-8611) was 21 ± 0.2 mm and the “Diameter of the culture's inhibited growth area” value ([1]; B. licheniformis VKPM B-8610) was 15 ± 0.2 mm.

In the case of `CO[C@@]1(NC(=O)C(C(=O)O)c2ccc(O)cc2)C(=O)N2C(C(=O)O)=C(CSc3nnnn3C)CO[C@@H]21` (stereo partly shown) [Moxalactam], the “Diameter of the culture's inhibited growth area” value (B. subtilis VKPM B-8611) is reported as 11 ± 0.2 mm and the “Diameter of the culture's inhibited growth area” value ([1]; B. licheniformis VKPM B-8610) is reported as 12 ± 0.3 mm.

With `CCn1cc(C(=O)O)c(=O)c2ccc(C)nc21` [Nalidixic acid] the “Diameter of the culture's inhibited growth area” value (B. subtilis VKPM B-8611) was 21 ± 0.1 mm and the “Diameter of the culture's inhibited growth area” value ([1]; B. licheniformis VKPM B-8610) was 15 ± 0.1 mm.

With `O=C1CN(/N=C/c2ccc([N+](=O)[O-])o2)C(=O)N1` [Nitrofurantoin] the “Diameter of the culture's inhibited growth area” value (B. subtilis VKPM B-8611) was 15 ± 0.2 mm and the “Diameter of the culture's inhibited growth area” value ([1]; B. licheniformis VKPM B-8610) was 20 ± 0.1 mm.

In the case of `CCn1cc(C(=O)O)c(=O)c2cc(F)c(N3CCNCC3)cc21` [Norfloxacin], the “Diameter of the culture's inhibited growth area” value (B. subtilis VKPM B-8611) is reported as 24 ± 0.2 mm and the “Diameter of the culture's inhibited growth area” value ([1]; B. licheniformis VKPM B-8610) is reported as 25 ± 0.2 mm.

`Cc1onc(-c2ccccc2)c1C(=O)N[C@@H]1C(=O)N2[C@@H]1SC(C)(C)[C@@H]2C(=O)O` [Oxacillin] was tested, and the “Diameter of the culture's inhibited growth area” value (B. subtilis VKPM B-8611) was 15 ± 0.3 mm and the “Diameter of the culture's inhibited growth area” value ([1]; B. licheniformis VKPM B-8610) was 11 ± 0.1 mm.

With `CCN1CCN(C(=O)N[C@@H](C(=O)N[C@@H]2C(=O)N3[C@@H]2SC(C)(C)[C@@H]3C(=O)O)c2ccccc2)C(=O)C1=O` [Piperacillin] the “Diameter of the culture's inhibited growth area” value (B. subtilis VKPM B-8611) was 15 ± 0.3 mm and the “Diameter of the culture's inhibited growth area” value ([1]; B. licheniformis VKPM B-8610) was 11 ± 0.1 mm.

For `CN(C)[C@@H]1C(O)=C(C(N)=O)C(=O)[C@@]2(O)C(O)=C3C(=O)c4c(O)cccc4[C@@](C)(O)[C@H]3C[C@@H]12` [Tetracycline], the “Diameter of the culture's inhibited growth area” value (B. subtilis VKPM B-8611) was 26 ± 0.1 mm and the “Diameter of the culture's inhibited growth area” value [1] was 24 ± 0.1 mm.

For `CC1(C)S[C@@H]2[C@H](NC(=O)[C@H](C(=O)O)c3ccsc3)C(=O)N2[C@H]1C(=O)O` [Ticarcillin], the “Diameter of the culture's inhibited growth area” value (B. subtilis VKPM B-8611) was 25 ± 0.4 mm and the “Diameter of the culture's inhibited growth area” value ([1]; B. licheniformis VKPM B-8610) was 21 ± 0.2 mm.

With `NC[C@H]1O[C@H](O[C@H]2[C@H](O)[C@@H](O[C@H]3O[C@H](CO)[C@@H](O)[C@H](N)[C@H]3O)[C@H](N)C[C@@H]2N)[C@H](N)C[C@@H]1O` [Tobramycin] the “Diameter of the culture's inhibited growth area” value (B. subtilis VKPM B-8611) was 25 ± 0.1 mm and the “Diameter of the culture's inhibited growth area” value ([1]; B. licheniformis VKPM B-8610) was 20 ± 0.2 mm.

`COc1cc(Cc2cnc(N)nc2N)cc(OC)c1OC` [Trimethoprim] was tested, and the “Diameter of the culture's inhibited growth area” value (B. subtilis VKPM B-8611) was 23 ± 0.1 mm and the “Diameter of the culture's inhibited growth area” value ([1]; B. licheniformis VKPM B-8610) was 25 ± 0.2 mm.

`CN[C@H](CC(C)C)C(=O)N[C@H]1C(=O)N[C@@H](CC(N)=O)C(=O)N[C@H]2C(=O)N[C@H]3C(=O)N[C@H](C(=O)N[C@H](C(=O)O)c4cc(O)cc(O)c4-c4cc3ccc4O)[C@H](O)c3ccc(c(Cl)c3)Oc3cc2cc(c3O[C@@H]2O[C@H](CO)[C@@H](O)[C@H](O)[C@H]2O[C@H]2C[C@](C)(N)[C@H](O)[C@H](C)O2)Oc2ccc(cc2Cl)[C@H]1O` [Vancomycin] was tested, and the “Diameter of the culture's inhibited growth area” value (B. subtilis VKPM B-8611) was 12 ± 0.1 mm and the “Diameter of the culture's inhibited growth area” value ([1]; B. licheniformis VKPM B-8610) was 10 ± 0.1 mm.

In the case of Gentamicin, the “Diameter of the culture's inhibited growth area” value (B. subtilis VKPM B-8611) is reported as 25 ± 0.3 mm and the “Diameter of the culture's inhibited growth area” value ([1]; B. licheniformis VKPM B-8610) is reported as 19 ± 0.2 mm.

For Polymyxin B, the “Diameter of the culture's inhibited growth area” value (B. subtilis VKPM B-8611) was 11 ± 0.1 mm and the “Diameter of the culture's inhibited growth area” value ([1]; B. licheniformis VKPM B-8610) was 10 ± 0.2 mm.
